Patent US9788541B2, “Antibacterial surfactant/microgel formulations, methods of making and methods of using the same” (The University of Toledo, priority 2012, dated 2017)

Test system: Pseudomonas aeruginosa PAO1
Test: Antibacterial activity test, viable cell counts by heterotrophic plate count
Assay type: cell-based
Details: microgel-free surfactant solutions (10 mmol/kg SDS, 14.4 mmol/kg TX-100, 3.0 mmol/kg 40:60 SDS:TX100), 0-30 min; FIG. 5 Groups 6-8
Experimental: The effect of anionic and nonionic surfactants on the microgel antibacterial properties was probed using Pseudomonas aeruginosa (wild-type P. aeruginosa PAOI strain) as model Gram-negative bacteria. The bacteria were cultured in one-tenth strength LB broth (2.5 g/L, Difco Laboratory, Detroit, Mich.) at 37° C. until the late-exponential phase. Bacterial cells were then harvested by centrifugation at 2,000 g for 15 min (using an Eppendorf 5804R centrifuge; Hamburg, Germany), washed and resuspended in phosphate buffer (0.54 g Na2HPQ4 and 0.88 g KH2PO4 per liter, pH=6.98) as bacterial suspensions (0D600=0.25±0.02).
Each antimicrobial formulation sample was then tested in triplicate at room temperature (22±2° C.). The bacterial suspension was mixed with the surfactant/microgel formulations in a 1:1000 ratio (e.g., 15 μl:15 ml). After mixing, samples were taken at 5, 15, and 30 min to quantify the effect of surfactant/microgel formulations on the number of viable cells. The viable cells were enumerated at each time point using the heterotrophic plate count method with R2A agar plates (Difco Laboratories, Detroit, Mich.).
The antibacterial activity of the surfactant/microgel formulations was tested using Pseudomonas aeruginosa PAO1 as a model Gram-negative bacteria. […]

| Compound | effect on bacterial viability |
| --- | --- |
| CCCCCCCCCCCCOS(=O)(=O)[O-].[Na+] [SDS, sodium dodecyl sulfate] | no short-term effect on bacterial viability |
| t-octylphenoxypolyethoxyethanol [TX100] | no short-term effect on bacterial viability |
